Literature values in patent US20160000716A1, “METHOD OF TREATING VITAMIN B12 DEFICIENCY” (Pharmaceutical Productions Inc., priority 2013, published 2016).

Conditions: over a wide dosing range, independent of the presence of intrinsic factor

Fraction of oral Vitamin B-12 absorbed: approximately 1.2%
Substance: Vitamin B-12
